According to patent US7718700B2, “Growth factor-binding compounds and methods of use” (Yale University, priority 2004, dated 2010):
Entries after “also recorded” stand apart in the source; their conditions may differ. Where two headings read alike, the source gives them in different places.

How the values were obtained:
PDGFR = assay: PDGF-stimulated PDGFR tyrosine phosphorylation in NIH 3T3 cells; type: cell-based, mouse; details: NIH 3T3 cells; read-out: IC50 PDGFR tyrosine phosphorylation (PDGF)
Procedure: (§1) Inhibition of growth factor-dependent receptor tyrosine phosphorylation by GFBs. Starved Flk-1/KDR-overexpressing NIH 3T3 cells (Flk-1/NIH 3T3) or NIH 3T3 cells were pretreated with GFBs for 5 min before stimulation with VEGF (50 ng/ml) or PDGF-BB (10 ng/ml) for 10 min, respectively. The cells were then harvested and lysed, and proteins from the lysates were separated by SDS-PAGE and transferred to nitrocellulose. Membranes then were either immunoblotted with anti-phospho-VEGFR2 antibody (Cell Signaling Technologies, Beverly, Mass.) for activated Flk-1 or anti-phospho-tyrosine antibody (4G10, Upstate Biotechnology, Lake Placid, N.Y.) for activated PDGFR. Phosphotyrosine Flk-1 and PDGFR were quantified using a Bio-Rad Model GS-700 Imaging Densitometer (Bio-Rad Laboratories, Inc, Hercules, Calif.) (Blaskovich, M. A. et al. Nat Biotechnol, 2000, 18:1065-70).

VEGFR (Flk-1/KDR) = assay: VEGF-stimulated Flk-1 tyrosine phosphorylation in Flk-1/NIH 3T3 cells; type: cell-based, human
Procedure: as §1

EGFR = biological target: T1, EGFR (Homo sapiens, UniProt P00533); assay: 125I-EGF binding to its receptor on EGFR/NIH 3T3 cells; details: concentrations as high as 100 μM
T1 construct: expressed in transfected cells; host or cells: NIH 3T3 (EGFR/NIH 3T3)
Procedure: Flk-1/NIH 3T3, NIH 3T3 and EGFR/NIH 3T3 cells were incubated with ^125I-VEGF, ^125I-PDGF and ^125I-EGF (50,000 cpm/well) respectively, along with increasing concentrations of GFB204. Cells were incubated at 4° C. for 0.5 hours, then washed three times with PBS and three times with lysis buffer prior to determining ^125I counts as described under Materials and Methods. An excess of cold VEGF, PDGF, and EGF was used to obtain non-specific binding levels. FIGS. 2A-2C show specific binding (% control) for PDGFR, Flk-1, and EGFR, respectively.
Binding of ^125I-growth factors to their receptors. The binding assay of ^125I-VEGF, ^125I-PDGF and ^125I-EGF to their respective receptors was carried out as described previously (Blaskovich, M. A. et al. Nat Biotechnol, 2000, 18:1065-70. Briefly, Flk-1/NIH 3T3 cells, NIH 3T3 cells and EGFR/NIH 3T3 cells were incubated with ^125I-VEGF, ^125I-PDGF and ^125I-EGF (50,000 cpm/well), respectively, and increasing concentrations of GFB204. Cells were incubated at 4° C. for 0.5 hours, then washed three times with PBS and three times with 25 mM Tris, pH 8.0, 1% Triton-X-100, 10% glycerol, and 1% SDS prior to determining ^125I counts on a gamma counter (Beckmann Inc.). An excess of cold growth factors were used to obtain nonspecific binding levels.

PDGF = PDGF (Homo sapiens, UniProt P01127); assay: Tryptophan fluorescence titration of PDGF; type: binding; details: emission at 334 nm
Procedure: (§2) FIGS. 2D and 2E illustrate that GFB-204 binds PDGF and VEGF as indicated by growth factor tryptophan when increased amounts of GFB204 were added to PDGF and VEGF, respectively. The fluorescence was monitored by excitation at 295 nm and 228 nm, respectively, and emission at 334 nm.
(§3) Both VEGF and PDGF contain tryptophans that fluoresce at […] when excited at […].

VEGF = biological target: T2, VEGF (Homo sapiens, UniProt P15692); assay: Tryptophan fluorescence titration of VEGF; type: binding; details: emission at 334 nm
T2 sequence (P15692 27-191 isoform P15692-4): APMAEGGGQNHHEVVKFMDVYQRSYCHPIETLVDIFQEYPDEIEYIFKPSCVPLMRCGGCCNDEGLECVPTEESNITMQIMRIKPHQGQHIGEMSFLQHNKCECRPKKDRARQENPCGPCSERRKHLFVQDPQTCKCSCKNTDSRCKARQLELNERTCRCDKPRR
Procedure: as §2, §3

[1] = test system: VEGF-stimulated Erk1, Erk2, Akt and STAT3 phosphorylation; assay: VEGF-stimulated phosphorylation of Erk1/2, Akt and STAT3 in Flk-1/NIH 3T3 cells; type: cell-based, mouse; details: GFB204 10 μM
Procedure: (§4) FIGS. 3A and 3B show the effect of GFB204 on growth factor stimulated Erk1, Erk2, Akt, and STAT3 phosphorylation. GFB204 inhibits VEGF and PDGF stimulation of Flk-1 tyrosine phosphorylation and Erk1/Erk2 phosphorylation (FIG. 3A). NIH 3T3 cells or Flk-1/NIH 3T3 cells were treated with increasing concentrations of GFB204 for 5 minutes prior to stimulation with PDGFBB (10 ng/ml) or VEGF (50 ng/ml), respectively, for 10 minutes. The cells were then lysed and processed for SDS-PAGE Western blotting with an antibody specific for phosphotyrosine-Flk-1 or anti-phosphotyrosine for PDGFR tyrosine phosphorylation or phospho-Erk1/2. GFB204 effects on growth factor-stimulated Erk1, Erk2, Akt and STAT3 phosphorylation (FIG. 3B). NIH 3T3, Flk-1/NIH 3T3, IGF-1R/NIH 3T3 or EGFR/NIH 3T3 cells were treated with GFB204 (10 μM) prior to stimulation with PDGF (NIH 3T3) VEGF (Flk-1/NIH 3T3), EGF (EGFR/NIH 3T3), bFGF (NIH 3T3) or IGF-1 (IGF-1R/NIH 3T3). The cells were then harvested and processed for SDS-PAGE Western blotting with antibodies specific for phospho-Erk1/2, phospho-Akt and phospho-STAT3.
(§5) Growth factor-mediated stimulation of phosphorylation of Erk1/2, Akt and STAT3. […]

[2] = test system: bFGF-stimulated Erk1, Erk2, Akt and STAT3 phosphorylation; assay: bFGF-stimulated phosphorylation of Erk1/2, Akt and STAT3 in NIH 3T3 cells; type: cell-based, mouse; details: GFB204 10 μM
Procedure: as §4, §5

[3] = test system: IGF-1-stimulated Erk1, Erk2, Akt and STAT3 phosphorylation; assay: IGF-1-stimulated phosphorylation of Erk1/2, Akt and STAT3 in IGF-1R/NIH 3T3 cells; type: cell-based, mouse; details: GFB204 10 μM
Procedure: as §4, §5

Sequence of PDGF (P01127 82-190 limits assumed): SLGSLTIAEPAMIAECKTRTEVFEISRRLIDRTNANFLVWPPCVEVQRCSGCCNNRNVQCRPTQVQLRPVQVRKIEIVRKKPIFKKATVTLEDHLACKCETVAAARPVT
T1 sequence (P00533 25-1210): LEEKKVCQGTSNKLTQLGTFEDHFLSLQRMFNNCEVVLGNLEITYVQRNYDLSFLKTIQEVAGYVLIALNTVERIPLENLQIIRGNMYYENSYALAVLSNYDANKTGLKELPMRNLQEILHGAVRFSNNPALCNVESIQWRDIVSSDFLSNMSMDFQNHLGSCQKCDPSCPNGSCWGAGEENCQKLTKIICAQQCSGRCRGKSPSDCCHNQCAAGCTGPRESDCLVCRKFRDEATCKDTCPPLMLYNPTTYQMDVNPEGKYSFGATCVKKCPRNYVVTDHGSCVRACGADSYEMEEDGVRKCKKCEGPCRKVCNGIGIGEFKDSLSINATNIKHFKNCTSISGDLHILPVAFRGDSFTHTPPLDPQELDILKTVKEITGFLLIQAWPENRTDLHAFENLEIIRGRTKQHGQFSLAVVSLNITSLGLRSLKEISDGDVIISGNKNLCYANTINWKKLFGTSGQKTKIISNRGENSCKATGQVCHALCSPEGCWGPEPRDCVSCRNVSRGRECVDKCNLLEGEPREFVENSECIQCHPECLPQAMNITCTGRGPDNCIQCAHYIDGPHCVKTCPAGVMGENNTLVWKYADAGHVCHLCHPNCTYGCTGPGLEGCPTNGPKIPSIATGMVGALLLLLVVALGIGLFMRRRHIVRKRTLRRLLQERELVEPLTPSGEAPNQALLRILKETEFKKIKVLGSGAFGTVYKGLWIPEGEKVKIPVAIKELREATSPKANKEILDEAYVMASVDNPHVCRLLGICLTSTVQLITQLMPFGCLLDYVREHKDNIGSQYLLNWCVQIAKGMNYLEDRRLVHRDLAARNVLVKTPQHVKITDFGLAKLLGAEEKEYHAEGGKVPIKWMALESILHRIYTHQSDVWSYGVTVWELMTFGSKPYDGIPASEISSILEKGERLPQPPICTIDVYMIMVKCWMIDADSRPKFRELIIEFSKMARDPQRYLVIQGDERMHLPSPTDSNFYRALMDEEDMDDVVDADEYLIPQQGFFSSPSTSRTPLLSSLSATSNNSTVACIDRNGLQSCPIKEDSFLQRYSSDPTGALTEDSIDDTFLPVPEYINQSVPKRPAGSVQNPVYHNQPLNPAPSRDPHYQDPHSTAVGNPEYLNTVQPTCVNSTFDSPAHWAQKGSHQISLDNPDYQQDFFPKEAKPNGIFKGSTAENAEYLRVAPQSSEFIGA

## CCCCOc1c2cc(C(=O)Nc3cc(C(=O)O)cc(C(=O)OCc4ccccc4)c3)cc1Cc1cc(C(=O)Nc3cc(C(=O)O)cc(C(=O)OCc4ccccc4)c3)cc(c1OCCCC)Cc1cc(C(=O)Nc3cc(C(=O)O)cc(C(=O)OCc4ccccc4)c3)cc(c1OCCCC)Cc1cc(C(=O)Nc3cc(C(=O)O)cc(C(=O)OCc4ccccc4)c3)cc(c1OCCCC)C2 [GFB204]
PDGFR
  IC50: 0.19 µM
VEGFR (Flk-1/KDR); VEGF 50 ng/ml stimulated Flk-1 tyrosine phosphorylation, read-out: IC50 (μM) VEGFR
  IC50: 0.48 ± 0.31 µM
VEGFR (Flk-1/KDR); read-out: IC50 VEGFR tyrosine phosphorylation (VEGF)
  IC50: 0.48 µM
EGFR
  [I-125]EGF binding to its receptor: not affected
PDGF
  binding to PDGF by tryptophan fluorescence titration: binds both PDGF and VEGF
VEGF
  binding to VEGF by tryptophan fluorescence titration: binds both PDGF and VEGF
[1]
  VEGF-stimulation of the phosphorylation of Erk1, Erk2, Akt and STAT3: blocked; also recorded: inhibited
[2]
  bFGF-stimulation of the phosphorylation of Erk1, Erk2, Akt and STAT3: had little effect and not
[3]
  IGF-1-stimulation of the phosphorylation of Erk1, Erk2, Akt and STAT3: had little effect and not
